One series concerns cancer cells. The series is described as follows: MTS assay: inhibition of cell growth (formazan absorbance at 492 nm after 72 hours with test compound). Type of series: cell-based. To be noted: inhibition class. The procedure, abridged: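 DMEM with 1% FBS; cells seeded at 3000/well and grown 18 h at 37 °C, then exposed to compound for 72 h and to MTS/PMS for 4 h. IC50 is the concentration giving a 50% absorbance drop; grades are % inhibition bands.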

Where [1] appears, read: Homo sapiens, DLD-1 cells, read-out: DLD-1, MTS 72 hours at 10 uM.
[2] abbreviates: Homo sapiens, KATO III cells, read-out: KATO III, MTS 72 hours at 10 uM.
[3] abbreviates: Homo sapiens, MDA-MB-231 cells, read-out: MDA-MB-231, MTS 72 hours at 10 uM.
Where [4] appears, read: Homo sapiens, NCI-H1299 cells, read-out: NCI-H1299, MTS 72 hours at 10 uM.
The mark [5] stands for this setting: Homo sapiens, PC-3 cells, read-out: PC-3, MTS 72 hours at 10 uM.
Where [6] appears, read: PACA-2 cells, read-out: PACA-2, MTS 72 hours at 10 uM.

Read-outs that look alike come from different tables or passages of the source.

In turn, `COc1ccc(CN2CCc3nn(Cc4ccccc4)c4nc(N5CCOCC5)nc2c34)cc1` [Compound 131, 4-(1-benzyl-5-(4-methoxybenzyl)-1,3,4,5-tetrahydro-1,2,5,6,8-pentaazaacenaphthylen-7-yl)morpholine] came in with a melting point of 118 to 120 °C.
As to `Cc1cccc2c(CCNc3nc4c5c(n[nH]c5n3)CCN4Cc3ccccc3)c[nH]c12` [Compound 73, 6-benzyl-N-[2-(7-methyl-1H-indol-3-yl)ethyl]-2,6,7,8-tetrahydro-1,2,3,5,6-pentaazaacenaphthylen-4-amine], the inhibition at 10 µM is greater than 79% in the series with cancer cells (setting [1]); greater than 79% with cancer cells (setting [2]); 50 to 79% in the series on cancer cells (setting [3]); greater than 79% in the series on cancer cells (setting [4]); less than 50% with cancer cells (setting [5]); 50 to 79% in the series with cancer cells (setting [6]).
`C1Cc2n[nH]c3nc(N4CCOCC4)nc(c23)N1` [Compound 125, 4-morpholin-4-yl-2,6,7,8-tetrahydro-1,2,3,5,6-pentaazaacenaphthylene]: the inhibition at 10 µM in the series with cancer cells (setting [1]), in the series with cancer cells (setting [2]), with cancer cells (setting [3]), in the series with cancer cells (setting [4]), with cancer cells (setting [5]) and in the series with cancer cells (setting [6]) was less than 50% throughout.
Take `COc1ccc(CN2CCc3n[nH]c4nc(N5CCN(c6ccncc6)CC5)nc2c34)cc1` [Compound 103, 6-(4-methoxybenzyl)-4-(4-pyridin-4-ylpiperazin-1-yl)-2,6,7,8-tetrahydro-1,2,3,5,6-pentaazaacenaphthylene]: the inhibition at 10 µM is greater than 79% in the series on cancer cells (setting [1]); greater than 79% in the series on cancer cells (setting [2]); greater than 79% in the series with cancer cells (setting [3]); 50 to 79% in the series on cancer cells (setting [4]); greater than 79% in the series with cancer cells (setting [5]); greater than 79% in the series with cancer cells (setting [6]).
`c1ccc(CNc2nc3c4c(n[nH]c4n2)CCN3Cc2ccccc2)cc1` [Compound 37, N,6-dibenzyl-2,6,7,8-tetrahydro-1,2,3,5,6-pentaazaacenaphthylen-4-amine]: the inhibition at 10 µM in the series with cancer cells (setting [1]), in the series with cancer cells (setting [2]), in the series with cancer cells (setting [3]), in the series on cancer cells (setting [4]), in the series with cancer cells (setting [5]) and in the series with cancer cells (setting [6]) was less than 50% each time.
Turning to `CSc1nc2c3c(nn(Cc4ccccc4)c3n1)CCN2Cc1ccccc1` [Compound 133, 2,6-dibenzyl-4-(methylsulfanyl)-2,6,7,8-tetrahydro-1,2,3,5,6-pentaazaacenaphthylene], the inhibition at 10 µM in the series with cancer cells (setting [1]), with cancer cells (setting [2]), in the series with cancer cells (setting [3]), in the series on cancer cells (setting [4]), with cancer cells (setting [5]) and in the series on cancer cells (setting [6]) was greater than 79% in each case.
On to `Clc1ccc(CCNc2nc3c4c(n[nH]c4n2)CCN3Cc2ccccc2)cc1Cl` [Compound 70, 6-benzyl-N-[2-(3,4-dichlorophenyl)ethyl]-2,6,7,8-tetrahydro-1,2,3,5,6-pentaazaacenaphthylen-4-amine], for which the inhibition at 10 µM is greater than 79% in the series with cancer cells (setting [1]); greater than 79% in the series with cancer cells (setting [2]); greater than 79% with cancer cells (setting [3]); greater than 79% in the series on cancer cells (setting [4]); less than 50% in the series on cancer cells (setting [5]); greater than 79% in the series with cancer cells (setting [6]).
As to `CCC(C)Nc1nc2c3c(n[nH]c3n1)CCN2Cc1ccccc1` (stereo not shown) [Compound 52, 6-benzyl-N-sec-butyl-2,6,7,8-tetrahydro-1,2,3,5,6-pentaazaacenaphthylen-4-amine], the inhibition at 10 µM in the series on cancer cells (setting [1]) was greater than 79%; with cancer cells (setting [2]), greater than 79%; in the series on cancer cells (setting [3]), greater than 79%; with cancer cells (setting [4]), 50 to 79%; in the series on cancer cells (setting [5]), less than 50%; in the series with cancer cells (setting [6]), 50 to 79%.
With `O=C(NCc1ccccc1)C1CN(Cc2ccccc2)c2nc(NCc3ccc(Oc4ccccc4)cc3)nc3[nH]nc1c23` (stereo not shown) [Compound 230, N,6-dibenzyl-4-[(4-phenoxybenzyl)amino]-2,6,7,8-tetrahydro-1,2,3,5,6-pentaazaacenaphthylene-8-carboxamide], the inhibition at 10 µM with cancer cells (setting [1]) was greater than 79%; with cancer cells (setting [2]) it was 50 to 79%; in the series on cancer cells (setting [3]) it was less than 50%; with cancer cells (setting [4]), 50 to 79%; in the series with cancer cells (setting [5]), 50 to 79%; in the series on cancer cells (setting [6]) it was less than 50%.
On to `COc1ccc(CN2CCCc3n[nH]c4nc(NCc5ccccc5)nc2c34)cc1` [Compound 247, N-benzyl-6-(4-methoxybenzyl)-6,7,8,9-tetrahydro-2H-1,2,3,5,6-pentaazabenzo[cd]azulen-4-amine], for which the inhibition at 10 µM with cancer cells (setting [1]), with cancer cells (setting [2]), in the series on cancer cells (setting [3]), in the series with cancer cells (setting [4]), in the series with cancer cells (setting [5]) and with cancer cells (setting [6]) was less than 50% each time.
With `CSc1nc2c3c(nn(C)c3n1)CCN2Cc1ccccc1` [Compound 171, 6-benzyl-2-methyl-4-(methylsulfanyl)-2,6,7,8-tetrahydro-1,2,3,5,6-pentaazaacenaphthylene], the inhibition at 10 µM is greater than 79% in the series on cancer cells (setting [1]); greater than 79% in the series on cancer cells (setting [2]); greater than 79% in the series on cancer cells (setting [3]); 50 to 79% in the series with cancer cells (setting [4]); greater than 79% with cancer cells (setting [5]); greater than 79% in the series on cancer cells (setting [6]).
